Test results reported in patent publication US7767240B2, “Microbiological control in poultry processing” (priority 2001, dated 2010).

How the values were obtained:
Type in all cases: cell-based
total aerobic bacteria = assay: Whole bird total aerobic bacteria, chill tank soup at pH 7, 8, 9 (Example 3); conditions: 50 birds per treatment
Experimental: (§1) This group of tests was conducted to determine the effect of Clorox® bleach, Aquatize® biocide, and 1,3-dibromo-5,5-dimethylhydantoin (DBDMH) on carcass bacteria (Escherichia coli field strain) residual after 1,5-hour in a chill tank “soup”. Tests were conducted with soups at pH 7, pH 8 and pH 9 (adjusted by trisodium phosphate) for whole bird bacteria counts. Tests at pH 8 were conducted for individual bacteria counts.
(§2) In general the tests involved normal processing of 56-day-old birds and immersing the carcasses first in a warm bath containing 10^4 per mL Escherichia coli, 10^4 per mL Salmonella enteritidis, 10^4 per mL Pseudomonas aeruginosa, 10^4 per mL Campylobacter jejuni, and 10^4 per mL spoilage bacteria each from […] strains (Listeria monocytogenes and Shigella sonnei). The carcasses were then immersed in a chill tank “soup”, containing normal organic fluids (blood, fat, skin, and meat particles) and containing the microbiocides on the test.
(§3) The procedure used for whole bird wash sampling was as follows: • 1. All samples were kept at ≦50 degrees Fahrenheit following collection. • 2. Microbiological analyses of samples began within 24 hours of sample collection. • 3. Information on the individual sample identification, date of collection, time of collection (phase during shift), treatment group and location of sample point were recorded on each sample bottle. • 4. At each defined sample time, carcasses were taken individually from the processing line wearing latex or rubber gloves. The gloves were rinsed with alcohol between each collection. • 5. Any excess fluid was drained off from the carcass. Each individual carcass was transferred to a sterile stomacher bag. • 6. To each carcass contained in the sterile stomacher bag, 400 mL of Butterfield's Phosphate Diluent (BPD) was added while making sure to pour the BPD into the inside of the carcass cavity. The carcass was rinsed inside and out with a rocking motion for one minute (ca. 35 RPM). This was best done by grasping the broiler carcass with one hand and the closed top of the bag with the other then rocking with a reciprocal motion in a 18-24 inch arc, assuring that all surfaces (interior and exterior of the carcass) were rinsed. • 7. The rinse solutions from each stomacher bag was transferred into the sample bottles, taking care to ensure that the information on the date of collection, time of collection (phase during shift), treatment group and location of sampler point matched that of the sample. • 8. Each bottle was sealed with parafilm and placed into a styrene container with crushed or dry ice or frozen freezer packs for overnight delivery to a testing laboratory. • 9. All filled styrene containers were held in a chilled (not below freezing) area until within 1 to 2 hours of courier collection for shipment.
Aerobic plate counts—Counting rules according to BAM 8th ed., Chapter 3.
(§4) In greater detail the trial events and experimental design used in this group of tests were as follows: • a) Test microorganisms used were: • Escherichia coli ATCC 11229 • Pseudomonas aeruginosa ATCC 15442 • Salmonella enteritidis ATCC 13076 • Shigella sonnei ATCC 9290 • Listeria monocytogenes ATCC 7644 • Campylobacter jejuni ATCC 29428 • b) Test Procedure: All test strains were grown individually at 35° C. for 24 hours in the media specified in Table 12. Cells were harvested by centrifugation at 10,000×g for 10 minutes and washed twice with Butterfield's Phosphate Buffer (BPB of pH 7.2). Cells were resuspended in BPB to obtain a cell suspension of approximately 1.0×10^8 CFU/mL for each microorganism. The target inoculum levels were approximately 10^6 CFU/mL in the final test solutions. In the cases of S. enteritidis and P. aeruginosa the species were washed by pouring into prepared sterile centrifuge tubes with cheesecloth filters. […]

[1] = tested on: S. sonnei, L. monocytogenes, E. coli, S. enteritidis, P. aeruginosa, C. jejuni; assay: Mean % reduction from control over the six organisms (Example 3); conditions: pH 8
Experimental: as §1, §2
The procedure used for whole bird wash sampling was as follows: • 1. All samples were kept at ≦50 degrees Fahrenheit following collection. • 2. Microbiological analyses of samples began within 24 hours of sample collection. • 3. Information on the individual sample identification, date of collection, time of collection (phase during shift), treatment group and location of sample point were recorded on each sample bottle. • 4. […]

[2] = tested on: Campylobacter jejuni ATCC 29428; assay: Individual bacteria count per bird at pH 8 (Example 3); conditions: 25 birds per treatment, control 1282
Experimental: as §1, §2
(§5) The bacteria stock solution used for this group of tests was prepared by growing each bacteria sample in the appropriate broth shown in Table 12. […] The containers were observed and not allowed to develop a heavy, cloudy visual appearance which would indicate that the growth had developed for too long a period. Thus the solutions had the appearance of only being foggy or somewhat unclear.
as §3
as §4, with “microorganism.” for “microorganism. The target inoculum levels were approximately 10^6 CFU/mL in the final test solutions. In the cases of S. enteritidis and P. aeruginosa the species were washed by pouring into prepared sterile centrifuge tubes with cheesecloth filters.”

[3] = tested on: Shigella sonnei ATCC 9290; assay: as above; conditions: 25 birds per treatment, control 4551
Experimental: as §1, §2, §5, §3
as §4, with “microorganism.” for “microorganism. The target inoculum levels were approximately 10^6 CFU/mL in the final test solutions. In the cases of S. enteritidis and P. aeruginosa the species were washed by pouring into prepared sterile centrifuge tubes with cheesecloth filters.”

[4] = tested on: Salmonella enteritidis ATCC 13076; assay: as above; conditions: 25 birds per treatment, control 3969
Experimental: as §1, §2, §5, §3
as §4, with “microorganism.” for “microorganism. The target inoculum levels were approximately 10^6 CFU/mL in the final test solutions. In the cases of S. enteritidis and P. aeruginosa the species were washed by pouring into prepared sterile centrifuge tubes with cheesecloth filters.”

[5] = tested on: Pseudomonas aeruginosa ATCC 15442; assay: as above; conditions: 25 birds per treatment, control 2783
Experimental: as §1, §2, §5, §3
as §4, with “microorganism.” for “microorganism. The target inoculum levels were approximately 10^6 CFU/mL in the final test solutions. In the cases of S. enteritidis and P. aeruginosa the species were washed by pouring into prepared sterile centrifuge tubes with cheesecloth filters.”

[6] = tested on: Escherichia coli ATCC 11229; assay: as above; conditions: 25 birds per treatment, control 3055
Experimental: as §1, §2, §5, §3
as §4, with “microorganism.” for “microorganism. The target inoculum levels were approximately 10^6 CFU/mL in the final test solutions. In the cases of S. enteritidis and P. aeruginosa the species were washed by pouring into prepared sterile centrifuge tubes with cheesecloth filters.”

[7] = tested on: Listeria monocytogenes ATCC 7644; assay: as above; conditions: 25 birds per treatment, control 2463
Experimental: as §1, §2, §5, §3
as §4, with “microorganism.” for “microorganism. The target inoculum levels were approximately 10^6 CFU/mL in the final test solutions. In the cases of S. enteritidis and P. aeruginosa the species were washed by pouring into prepared sterile centrifuge tubes with cheesecloth filters.”

With `CC1(C)C(=O)N(Br)C(=O)N1Br` [DBDMH, 1,3-dibromo-5,5-dimethylhydantoin] the “Whole Bird Total Aerobic Bacteria (% Reduction)” value (total aerobic bacteria; Water pH 7, 10 ppm Cl2 equivalent) was 85%, the “Whole Bird Total Aerobic Bacteria (% Reduction)” value (total aerobic bacteria; Water pH 7, 20 ppm Cl2 equivalent) was 99% and the “Whole Bird Total Aerobic Bacteria (% Reduction)” value (total aerobic bacteria; Water pH 8, 10 ppm Cl2 equivalent) was 82%. For the same molecule, the “Whole Bird Total Aerobic Bacteria (% Reduction)” value (total aerobic bacteria; Water pH 8, 20 ppm Cl2 equivalent) was 98%, the “Whole Bird Total Aerobic Bacteria (% Reduction)” value (total aerobic bacteria; Water pH 9, 10 ppm Cl2 equivalent) was 78% and the “Whole Bird Total Aerobic Bacteria (% Reduction)” value (total aerobic bacteria; Water pH 9, 20 ppm Cl2 equivalent) was 96%. The “Mean % Reduction From Control” value ([1]; 10 ppm) was 85.8%, the “Mean % Reduction From Control” value ([1]; 20 ppm) was 98.8% and the “average bacteria count per bird, C. jejuni” value ([2]; 10 ppm) was 183 per bird. The “average bacteria count per bird, C. jejuni” value ([2]; 20 ppm) was 15 per bird, the “average bacteria count per bird, S. sonnei” value ([3]; 10 ppm) was 456 per bird and the “average bacteria count per bird, S. sonnei” value ([3]; 20 ppm) was 12 per bird. The “average bacteria count per bird, S. enteritidis” value ([4]; 10 ppm) was 560 per bird, the “average bacteria count per bird, S. enteritidis” value ([4]; 20 ppm) was 10 per bird and the “average bacteria count per bird, P. aeruginosa” value ([5]; 10 ppm) was 289 per bird. The “average bacteria count per bird, P. aeruginosa” value ([5]; 20 ppm) was 9 per bird, the “average bacteria count per bird, E. coli” value ([6]; 10 ppm) was 357 per bird and the “average bacteria count per bird, E. coli” value ([6]; 20 ppm) was 4 per bird. For the same molecule, the “average bacteria count per bird, L. monocytogenes” value ([7]; 10 ppm) was 262 per bird and the “average bacteria count per bird, L. monocytogenes” value ([7]; 20 ppm) was 6 per bird.
